# Measurements from patent US20230339886A1 (University of Florida Research Foundation, Incorporated, priority 2020, published 2023).
# Molecular target: T1, REV-ERBα LBD (human; residues 281-614 Δ324-422) (Homo sapiens, UniProt P20393, DEL324-422)
# T1 construct: 6×Histag-REV-ERBα LBD (human; residues 281-614 Δ324-422); made in house; host or cells: Escherichia coli
# Assay: TR-FRET corepressor interaction assay (REV-ERBα LBD, FITC-SMRT peptide)
# Type: biochemical
# Conditions: FITC-SMRT peptide, read-out: REVERBα agonism (EC50 class, FRET assay)
# How it was run: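 Compound serial dilutions (in DMSO, triplicate) incubated 2 h at 4 °C; Tb donor excited at 340 nm, emission read at 495 nm and FITC acceptor at 520 nm. TR-FRET ratio (520/495 nm) plotted against ligand concentration and fitted to a sigmoidal dose-response curve.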
# T1 sequence (P20393 with tags, fused parts or gaps DEL324-422): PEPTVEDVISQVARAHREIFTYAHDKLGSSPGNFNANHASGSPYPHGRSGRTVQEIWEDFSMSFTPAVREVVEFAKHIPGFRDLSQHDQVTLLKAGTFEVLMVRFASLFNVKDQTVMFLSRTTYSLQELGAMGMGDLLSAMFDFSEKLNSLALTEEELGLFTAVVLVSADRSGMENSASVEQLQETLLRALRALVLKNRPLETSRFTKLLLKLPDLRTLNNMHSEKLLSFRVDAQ
# T1 sequence (Q9Y618 2335-2356 partner limits assumed): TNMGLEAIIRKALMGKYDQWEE
row,SMILES,EC50
1,"CC(NS(=O)(=O)C1CCC1)c1cn(CC2CCCC2)c2cc(-c3ccccc3C(F)(F)F)ccc12 (centres unmarked) [Example 510, N-(1-(1-(cyclopentylmethyl)-6-(2-(trifluoromethyl)phenyl)-1H-indol-3-yl)ethyl)cyclobutanesulfonamide]",< 500 nM
2,"CC(C)(C)Cn1cc([C@H](NS(=O)(=O)C2CCC2)C(F)(F)F)c2cc(F)c(-c3c(F)cccc3C(F)(F)F)cc21 [Example 511, N-((1S)-2,2,2-trifluoro-1-(5-fluoro-6-(2-fluoro-6-(trifluoromethyl)phenyl)-1-neopentyl-1H-indol-3-yl)ethyl)cyclobutanesulfonamide]",500 to 3000 nM
3,"CC1(Cn2cc([C@H](NS(=O)(=O)C3CCC3)C(F)(F)F)c3ccc(-c4ccccc4C(F)(F)F)cc32)CC1 [Example 512, (S)—N-(2,2,2-trifluoro-1-(1-((1-methylcyclopropyl)methyl)-6-(2-(trifluoromethyl)phenyl)-1H-indol-3-yl)ethyl)cyclobutanesulfonamide]",< 500 nM
4,"CC(C)(C)Cn1cc([C@H](NS(=O)(=O)C2CCC2)C(F)F)c2ccc(-c3ccccc3C(F)(F)F)cc21 [Example 513, (S)—N-(2,2-difluoro-1-(1-neopentyl-6-(2-(trifluoromethyl)phenyl)-1H-indol-3-yl)ethyl)cyclobutanesulfonamide]",< 500 nM
5,"C[C@H]1C[C@@H]1S(=O)(=O)N[C@@H](c1cn(CC(C)(C)C)c2cc(-c3ccccc3C(F)(F)F)ccc12)C(F)(F)F [Example 514, (1S,2S)-2-methyl-N—((S)-2,2,2-trifluoro-1-(1-neopentyl-6-(2-(trifluoromethyl)phenyl)-1H-indol-3-yl)ethyl)cyclopropane-1-sulfonamide]",< 500 nM
6,"CC(C)(C)Cn1cc([C@H](NS(=O)(=O)C2CC2(F)F)C(F)(F)F)c2ccc(-c3ccccc3C(F)(F)F)cc21 (stereo partly drawn) [Example 515, 2,2-difluoro-N—((S)-2,2,2-trifluoro-1-(1-neopentyl-6-(2-(trifluoromethyl)phenyl)-1H-indol-3-yl)ethyl)cyclopropane-1-sulfonamide]",500 to 3000 nM
7,"CC(C)(C)Cn1cc([C@@H](CF)NS(=O)(=O)C2CCC2)c2ccc(-c3ccccc3C(F)(F)F)cc21 [Example 516, (S)—N-(2-fluoro-1-(1-neopentyl-6-(2-(trifluoromethyl)phenyl)-1H-indol-3-yl)ethyl)cyclobutanesulfonamide]",< 500 nM
8,"[2H]C([2H])(n1cc([C@H](NS(=O)(=O)C2CCC2)C(F)(F)F)c2ccc(-c3ccccc3C(F)(F)F)cc21)C(C)(C)C [Example 517, (S)—N-(1-(1-(2,2-dimethylpropyl-1,1-d2)-6-(2-(trifluoromethyl)phenyl)-1H-indol-3-yl)-2,2,2-trifluoroethyl)cyclobutanesulfonamide]",< 500 nM
9,"CC(C)(C)Cn1cc([C@H](NS(=O)(=O)C2CCC2)C(F)F)c2ccc(-c3ccccc3C(F)(F)F)nc21 [Example 518, (S)—N-(2,2-difluoro-1-(1-neopentyl-6-(2-(trifluoromethyl)phenyl)-1H-pyrrolo[2,3-b]pyridin-3-yl)ethyl)cyclobutanesulfonamide]",< 500 nM
10,"CC(C)(C)Cn1cc([C@H](NS(=O)(=O)C2CCC2)C(F)(F)F)c2ccc(C3CCOCC3)cc21 [Example 519, (S)—N-(2,2,2-trifluoro-1-(1-neopentyl-6-(tetrahydro-2H-pyran-4-yl)-1H-indol-3-yl)ethyl)cyclobutanesulfonamide]",< 500 nM
11,"N#Cc1cccc(F)c1-c1ccc2c([C@H](NS(=O)(=O)C3CCC3)C(F)(F)F)cn(C3CCC3)c2c1 [Example 520, (S)—N-(1-(6-(2-cyano-6-fluorophenyl)-1-cyclobutyl-1H-indol-3-yl)-2,2,2-trifluoroethyl)cyclobutanesulfonamide]",< 500 nM
12,"CC(C)(C)Cn1cc([C@H](NS(=O)(=O)C2CCC2)C(F)(F)F)c2ccc(C3=CCCC3)cc21 [Example 521, (S)—N-(1-(6-cyclopentenyl-1-neopentyl-1H-indol-3-yl)-2,2,2-trifluoroethyl)cyclobutanesulfonamide]",< 500 nM
13,"CC(C)(C)Cn1cc([C@H](NS(=O)(=O)C2CC(O)C2)C(F)(F)F)c2ccc(-c3ccccc3C(F)(F)F)cc21 (stereo partly drawn) [Example 522, (S)-3-hydroxy-N-(2,2,2-trifluoro-1-(1-neopentyl-6-(2-(trifluoromethyl)phenyl)-1H-indol-3-yl)ethyl)cyclobutane-1-sulfonamide]",500 to 3000 nM

# Second part, the compound after the results:
row,EC50,SMILES
1,< 500 nM,"O=S(=O)(N[C@@H](c1cn(CC2(C(F)(F)F)CC2)c2cc(-c3ccccc3C(F)(F)F)ccc12)C(F)(F)F)C1CCC1 [Example 523, (S)—N-(2,2,2-trifluoro-1-(1-((1-(trifluoromethyl)cyclopropyl)methyl)-6-(2-(trifluoromethyl)phenyl)-1H-indol-3-yl)ethyl)cyclobutanesulfonamide]"
2,< 500 nM,"CC(C)(C)Cn1cc([C@H](NS(=O)(=O)C2CC2)C(F)(F)F)c2cc(F)c(-c3ccccc3C(F)(F)F)nc21 [Example 524, (S)—N-(2,2,2-trifluoro-1-(5-fluoro-1-neopentyl-6-(2-(trifluoromethyl)phenyl)-1H-pyrrolo[2,3-b]pyridin-3-yl)ethyl)cyclopropanesulfonamide]"
3,< 500 nM,"CC(C)(C)Cn1cc([C@H](NS(=O)(=O)C2CCC2)C(F)(F)F)c2cc(F)c(-c3ccccc3C(F)(F)F)nc21 [Example 525, (S)—N-(2,2,2-trifluoro-1-(5-fluoro-1-neopentyl-6-(2-(trifluoromethyl)phenyl)-1H-pyrrolo[2,3-b]pyridin-3-yl)ethyl)cyclobutanesulfonamide]"
4,< 500 nM,"N#Cc1cccc(F)c1-c1ccc2c([C@H](NS(=O)(=O)C3CCC3)C(F)(F)F)cn(C3CCOCC3)c2c1 [Example 526, (S)—N-(1-(6-(2-cyano-6-fluorophenyl)-1-(tetrahydro-2H-pyran-4-yl)-1H-indol-3-yl)-2,2,2-trifluoroethyl)cyclobutanesulfonamide]"
5,< 500 nM,"CC(C)(C)Cn1cc([C@H](NS(=O)(=O)C2CCC2)C(F)F)c2ccc(-c3c(F)cccc3C(F)(F)F)cc21 [Example 527, (S)—N-(2,2-difluoro-1-(6-(2-fluoro-6-(trifluoromethyl)phenyl)-1-neopentyl-1H-indol-3-yl)ethyl)cyclobutanesulfonamide]"
6,< 500 nM,"CC(C)(C)Cn1cc([C@H](NS(=O)(=O)C2CCC2)C(F)(F)F)c2cc(F)c(-c3cccnc3C(F)(F)F)cc21 [Example 528, (S)—N-(2,2,2-trifluoro-1-(5-fluoro-1-neopentyl-6-(2-(trifluoromethyl)pyridin-3-yl)-1H-indol-3-yl)ethyl)cyclobutanesulfonamide]"
7,< 500 nM,"CC(C)(C)Cn1cc([C@H](NS(=O)(=O)C2CCC2)C(F)(F)F)c2cc(F)c(-c3cnccc3C(F)(F)F)cc21 [Example 530, (S)—N-(2,2,2-trifluoro-1-(5-fluoro-1-neopentyl-6-(4-(trifluoromethyl)pyridin-3-yl)-1H-indol-3-yl)ethyl)cyclobutanesulfonamide]"
8,< 500 nM,"CC(C)(C)Cn1cc([C@H](NS(=O)(=O)C2CCC2)C(F)F)c2cc(F)c(-c3ccccc3C(F)(F)F)nc21 [Example 533, (S)—N-(2,2-difluoro-1-(5-fluoro-1-neopentyl-6-(2-(trifluoromethyl)phenyl)-1H-pyrrolo[2,3-b]pyridin-3-yl)ethyl)cyclobutanesulfonamide]"
9,< 500 nM,"CC(C)(C)Cn1cc([C@H](NS(=O)(=O)C2CCC2)C(F)(F)F)c2ccc(-c3ccccc3C#N)nc21 [Example 534, (S)—N-(1-(6-(2-cyanophenyl)-1-neopentyl-1H-pyrrolo[2,3-b]pyridin-3-yl)-2,2,2-trifluoroethyl)cyclobutanesulfonamide]"
10,< 500 nM,"CC(C)(C)Cn1cc([C@H](NS(=O)(=O)C2CCC2)C(F)F)c2ccc(-c3c(C#N)cccc3C(F)(F)F)cc21 [Example 535, (S)—N-(1-(6-(2-cyano-6-(trifluoromethyl)phenyl)-1-neopentyl-1H-indol-3-yl)-2,2-difluoroethyl)cyclobutanesulfonamide]"
11,< 500 nM,"CC(C)(C)Cn1cc([C@H](NS(=O)(=O)C2CC2)C(F)(F)F)c2ccc(-c3ccccc3C(F)(F)F)c(F)c21 [Example 536, (S)—N-(2,2,2-trifluoro-1-(7-fluoro-1-neopentyl-6-(2-(trifluoromethyl)phenyl)-1H-indol-3-yl)ethyl)cyclopropanesulfonamide]"
12,> 3000 nM,"CC(C)(C)Cn1cc([C@H](NS(=O)(=O)C2CCC2(F)F)C(F)(F)F)c2ccc(-c3ccccc3C(F)(F)F)cc21 (stereo partly drawn) [Example 537, 2,2-difluoro-N—((S)-2,2,2-trifluoro-1-(1-neopentyl-6-(2-(trifluoromethyl)phenyl)-1H-indol-3-yl)ethyl)cyclobutane-1-sulfonamide]"
13,< 500 nM,"CC(C)(C)Cn1cc([C@H](NS(=O)(=O)C2CCC2)C(F)(F)F)c2cc(F)c(-c3ncccc3C#N)cc21 [Example 538, (S)—N-(1-(6-(3-cyanopyridin-2-yl)-5-fluoro-1-neopentyl-1H-indol-3-yl)-2,2,2-trifluoroethyl)cyclobutanesulfonamide]"
14,< 500 nM,"CC(C)(C)Cn1cc([C@H](NS(=O)(=O)C2CC2)C(F)F)c2ccc(-c3ccccc3C(F)(F)F)cc21 [Example 541, (S)—N-(2,2-difluoro-1-(1-neopentyl-6-(2-(trifluoromethyl)phenyl)-1H-indol-3-yl)ethyl)cyclopropanesulfonamide]"
15,< 500 nM,"CC(C)(C)Cn1cc([C@H](NS(=O)(=O)C2CC2)C(F)F)c2cc(F)c(-c3ccccc3C(F)(F)F)cc21 [Example 542, (S)—N-(2,2-difluoro-1-(5-fluoro-1-neopentyl-6-(2-(trifluoromethyl)phenyl)-1H-indol-3-yl)ethyl)cyclopropanesulfonamide]"
16,< 500 nM,"CC(C)(C)Cn1cc([C@H](NS(=O)(=O)C2CC2)C(F)F)c2ccc(-c3c(F)cccc3C(F)(F)F)cc21 [Example 543, (S)—N-(2,2-difluoro-1-(6-(2-fluoro-6-(trifluoromethyl)phenyl)-1-neopentyl-1H-indol-3-yl)ethyl)cyclopropanesulfonamide]"
